In US8669293B2, “Method and compositions for preventing hormone induced adverse effects” (Lycored Ltd., priority 2000, dated 2014):
“Also recorded” adds a separate entry of the source.

Tests used:
[1] = test system: ECC-1 endometrial cancer cells; assay: ECC-1 cell proliferation assay ([3H]thymidine incorporation into DNA); format: cell-based, human; conditions: for inhibition of estradiol-induced cell proliferation / inhibition of genistein-induced cell proliferation: FIG. 4
Experimental: The human endometrial cancer (estrogen dependent) cell line ECC-1 was developed by Dr. […] University, PA, U.S.A, and generously provided to us by Dr. R. Oregan, Norwestern University, Chicago, Ill., U.S.A. Human mammary cancer cell lines MCF-7 (estrogen dependent) and MDA-231 (hormone independent) were obtained from the American Type Culture Collection (Rockville, Md., U.S.A.). Cells were cultured in DMEM containing penicillin (100 U/ml), streptomycin (0.1 mg/ml)) nystatin (12.5 μg/ml), insulin (0.6 μg/ml), and 10% FCS. Cells were stripped of endogenous steroids according to the procedure of Vignon et al. (1987, Biochem. Biophys. Res. Comm., 146:1502-8) by sucessive passages in medium without phenol red containing 10% and then 3% of charcoal-stripped FCS. Cells were seeded into 96 multiwell plates (5,000 cells per well) in DMEM containing 3% of charcoal-stripped FCS. After one day the medium was changed to one containing the solubilized carotenoid or THF alone. The medium was changed daily to ensure a continuous supply of carotenoid. After incubation, the number of cells and the rate of cell proliferation were estimated by the incorporation of [^3H]thymidine incorporation into cellular DNA, as described in U.S. Pat. No. 5,827,900. Cell growth was also measured by direct cell counting with a Coulter counter after trypsinization and dilution in Isotone-II (Coulter Electronics, Luton, England). A good correlation was found between the two methods. ECC-1 cells were incubated with increasing concentrations of the isoflavones genistein and daidzein, the two primary isoflavones in soy products, and with soy extract. Cell proliferation after three days was measured by [^3H]thymidine incorporation into DNA (FIG. 1, panel A). […] ECC-1 cells were also incubated with a single high concentration (40 μM) of each of genistein, daidzein and soy extract and cell proliferation was assayed daily over the course of three days.

[2] = test system: estrogen receptor-positive human breast cancer cell lines; conditions: approximately 0.1 to 10 μM; not in estrogen receptor negative lines; cited from earlier work
[3] = test system: MCF-7 mammary cancer cells (estrogen dependent); assay: MCF-7 cell proliferation assay ([3H]thymidine incorporation); format: cell-based, human; conditions: for inhibition of phytoestrogen-induced cell proliferation: genistein 4 μM
Experimental: (§1) The human endometrial cancer (estrogen dependent) cell line ECC-1 was developed by Dr. P. G. Satyaswaroop, Pennslyvania State University, PA, U.S.A, and generously provided to us by Dr. R. Oregan, Norwestern University, Chicago, Ill., U.S.A. Human mammary cancer cell lines MCF-7 (estrogen dependent) and MDA-231 (hormone independent) were obtained from the American Type Culture Collection (Rockville, Md., U.S.A.).
(§2) Cells were cultured in DMEM containing penicillin (100 U/ml), streptomycin (0.1 mg/ml)) nystatin (12.5 μg/ml), insulin (0.6 μg/ml), and 10% FCS. Cells were stripped of endogenous steroids according to the procedure of Vignon et al. (1987, Biochem. Biophys. Res. Comm., 146:1502-8) by sucessive passages in medium without phenol red containing 10% and then 3% of charcoal-stripped FCS. Cells were seeded into 96 multiwell plates (5,000 cells per well) in DMEM containing 3% of charcoal-stripped FCS. After one day the medium was changed to one containing the solubilized carotenoid or THF alone. The medium was changed daily to ensure a continuous supply of carotenoid.
(§3) After incubation, the number of cells and the rate of cell proliferation were estimated by the incorporation of [^3H]thymidine incorporation into cellular DNA, as described in U.S. Pat. No. 5,827,900. Cell growth was also measured by direct cell counting with a Coulter counter after trypsinization and dilution in Isotone-II (Coulter Electronics, Luton, England).
The comparative effects of estradiol and genistein supplementation on the proliferation of the hormone-dependent cell lines MCF-7 mammary cancer and ECC-1 endometrial cancer were examined (FIG. 2).
MCF-7 mammary cancer cells were stimulated by genistein (4 μM) and test cultures were additionally supplemented with lycopene or phytoene or a combination of both, at either physiological concentrations (FIG. 6 panel A) or at about one order of magnitude greater than the physiological concentrations (FIG. 6 panel B).

[4] = test system: MDA-231 mammary cancer cells (hormone independent); assay: MDA-231 cell proliferation assay ([3H]thymidine incorporation); format: cell-based, human; conditions: IGF-1 30 nM
Experimental: as §1, §2
as §3, with “England). A good correlation was found between the two methods.” for “England).”

[5] = 40 μM, after one day of incubation, FIG. 1 panel B
[6] = 0.4 and 4 μM, three days, FIG. 1 panel A
[7] = higher, non-physiological concentrations (≧10 μM), three days, FIG. 1 panel A
[8] = lycopene 3 to 5 μM, three days, FIG. 2
[9] = carotenoids at high, non-physiological concentrations (about one order of magnitude above physiological), FIG. 6 panel B
[10] = carotenoids at physiological concentrations, FIG. 6 panel A

Which results are given for CC1=C(/C=C/C(C)=C/C=C/C(C)=C/C=C/C=C(C)/C=C/C=C(C)/C=C/C2=C(C)C(=O)[C@@H](O)CC2(C)C)C(C)(C)C[C@H](O)C1=O [astaxanthin]?
inhibition of estradiol-induced cell proliferation ([1]; estradiol 10 nM): effectively inhibited; inhibition of genistein-induced cell proliferation ([1]; genistein 1 μM): effective inhibitors; also recorded: effectively inhibited

Which “inhibition of estradiol-induced cell proliferation” value ([1]; estradiol 10 nM) does the source give for CC1=C(/C=C/C(C)=C/C=C/C(C)=C/C=C/C=C(C)/C=C/C=C(C)/C=C/C2=C(C)CCCC2(C)C)C(C)(C)CCC1 [beta-carotene] here?
The value was “effectively inhibited”.

What about the “inhibition of genistein-induced cell proliferation” value ([1]; genistein 1 μM) of the same compound?
Its value is “effective inhibitors; also recorded: effectively inhibited”.

Which “effect on cell proliferation” value [2] does the source give for COc1ccc(-c2coc3cc(O)cc(O)c3c2=O)cc1 [biochanin A] here?
The value was “induce cell proliferation”.

Which “effect on cell proliferation” value [2] does the source give for O=c1oc2cc(O)ccc2c2oc3cc(O)ccc3c12 [counestrol] here?
The value was “induce cell proliferation”.

What does the source list for O=c1c(-c2ccc(O)cc2)coc2cc(O)ccc12 [daidzein, reference compound]?
effect on cell proliferation [1, 5]: significantly increases cell proliferation; also recorded: stimulated cell proliferation; effect on cell proliferation [1, 6]: significant increase in cell proliferation rate; also recorded: stimulated cell proliferation; effect on cell proliferation [1, 7]: only stimulatory

With O=c1c(-c2ccc(O)cc2)coc2cc(O)cc(O)c12 [genistein, reference compound] as the compound, how does the “effect on cell proliferation” value [2] read?
Its value is “induce cell proliferation”.

And the “effect on cell proliferation” value [1, 5]?
Its value is “significantly increases cell proliferation; also recorded: stimulated cell proliferation”.

What about the “effect on cell proliferation” value ([1]; 40 μM, second day in culture, FIG. 1 panel B) of the same compound?
Its value is “inhibitory effects”.

And the “effect on cell proliferation” value [1, 6]?
Its value is “significant increase in cell proliferation rate”.

What about the “effect on cell proliferation” value ([1]; 0.4 and 4 μM, three days, FIG. 1 panel A, listed as Genistein) of the same compound?
Its value is “stimulated cell proliferation”.

And the “effect of hormone alone on proliferation” value ([1]; genistein increasing concentrations, estradiol 1 and 10 nM, FIG. 1/2)?
The value was “biphasic effects on proliferation”.

What about the “effect on cell proliferation” value [1, 7] of the same compound?
The value was “inhibited cell proliferation”.

What about the “stimulatory effect of genistein in the presence of IGF-1” value ([3]; genistein about 0.4 to 4 μM plus IGF-1 30 nM, compared with genistein alone, FIG. 3 panel A) of the same compound?
The value was “significantly increases the cell proliferation rate; also recorded: further augmented”.

What about the “effect of hormone alone on proliferation” value ([3]; genistein increasing concentrations, estradiol 1 and 10 nM, FIG. 2) of the same compound?
Its value is “biphasic effects on proliferation”.

For O=c1c(O)c(-c2ccc(O)cc2)oc2cc(O)cc(O)c12 [kaempferl], which “effect on cell proliferation” value [2] is on record?
The value was “induce cell proliferation”.

With O=c1cc(-c2ccc(O)c(O)c2)oc2cc(O)cc(O)c12 [luiolin] as the compound, how does the “effect on cell proliferation” value [2] read?
The value was “induce cell proliferation”.

With CC(C)=CCC/C(C)=C/C=C/C(C)=C/C=C/C(C)=C/C=C/C=C(C)/C=C/C=C(C)/C=C/C=C(\C)CCC=C(C)C [lycopene] as the compound, how does the “inhibition of estradiol-induced cell proliferation” value ([1]; estradiol 10 nM) read?
The value was “effectively inhibited”.

What about the “inhibition of estradiol-induced cell proliferation, dose dependence” value ([1]; estradiol 10 nM, various lycopene concentrations (lowest 0.9 μM), FIG. 5) of the same compound?
The value was “all lycopene concentrations tested were effective in inhibiting”.

And the “inhibition of genistein-induced cell proliferation” value ([1]; genistein 1 μM)?
Its value is “effective inhibitors; also recorded: effectively inhibited”.

And the “inhibition of genistein-induced cell proliferation, dose dependence” value ([1]; genistein 1 μM, various lycopene concentrations (lowest 0.9 μM), FIG. 5)?
The value was “all lycopene concentrations tested were effective in inhibiting”.

What about the “effect on basal growth” value [1, 8] of the same compound?
The value was “significantly inhibited”.

What about the “effect on estrogen-induced (genistein or estradiol) growth” value [1, 8] of the same compound?
Its value is “substantially inhibited; also recorded: significantly inhibited”.

What about the “cell proliferation relative to controls” value ([4]; lycopene 3 to 5 μM, FIG. 3) of the same compound?
The value was “reduced to levels less than that of controls”.

What about the “effect on IGF stimulation of proliferation” value ([4]; lycopene 3 to 5 μM, FIG. 3) of the same compound?
The value was “inhibits IGF stimulation”.

What about the “inhibition of phytoestrogen-induced cell proliferation” value [3, 9] of the same compound?
Its value is “effective in significantly inhibiting”.

And the “inhibition of phytoestrogen-induced cell proliferation” value [3, 10]?
Its value is “only marginally effective”.

What about the “effect on IGF stimulation of proliferation” value ([3]; lycopene 3 to 5 μM, IGF-1 30 nM, FIG. 3) of the same compound?
Its value is “inhibits IGF stimulation”.

What about the “effect on cell proliferation stimulated by combined IGF-1 and genistein” value ([3]; lycopene 3 to 5 μM, genistein 0.4 to 4 μM, IGF-1 30 nM, FIG. 3 panel A) of the same compound?
Its value is “inhibits the cell proliferation”.

And the “effect on basal growth” value [3, 8]?
The value was “significantly inhibited”.

What about the “effect on estrogen-induced (genistein or estradiol) growth” value [3, 8] of the same compound?
Its value is “substantially inhibited; also recorded: significantly inhibited”.

For CC(C)=CCC/C(C)=C/CC/C(C)=C/CC/C(C)=C/C=C/C=C(\C)CC/C=C(\C)CC/C=C(\C)CCC=C(C)C [phytoene], which “inhibition of genistein-induced cell proliferation” value ([1]; genistein 1 μM) is on record?
Its value is “effective inhibitors”.

And the “inhibition of phytoestrogen-induced cell proliferation” value [3, 9]?
The value was “effective in significantly inhibiting”.

What about the “inhibition of phytoestrogen-induced cell proliferation” value [3, 10] of the same compound?
The value was “not effective”.

For “IGF-1: Human recombinant IGF-1 purchased from GroPep”, which “effect on cell growth” value ([4]; FIG. 3 panel B) is on record?
Its value is “significantly stimulates cell growth”.

And the “effect on cell growth” value ([3]; IGF-1 30 nM, FIG. 3 panel A)?
Its value is “significantly stimulates cell growth”.
